Measured values taken from US12622910B2, “Inhibitors of Bruton's tyrosine kinase and methods of their use” (Janssen Pharmaceutica NV, priority 2021, dated 2026).

Key:
CYP2C8 = molecular target: T1, CYP2C8 (Homo sapiens, UniProt P10632); assay: CYP inhibition in human liver microsomes; assay type: in vitro ADME; details: probe Amodiaquine
T1 construct: with specific CYP probe substrates in human liver microsomes; from tissue; host or cells: human liver microsomes
Method: (§1) The potential of the compound of Formula (III) to inhibit human CYP450s in vitro was investigated up to test concentrations of 50 μM by incubating the compound of Formula (III) with specific CYP probe substrates in human liver microsomes and measuring probe metabolite formation.

CYP2E1 = molecular target: T2, CYP2E1 (Homo sapiens, UniProt P05181); assay: CYP inhibition in human liver microsomes; assay type: in vitro ADME; details: probe Chlorzoxazone
T2 construct: with specific CYP probe substrates in human liver microsomes; from tissue; host or cells: human liver microsomes
T2 sequence (P05181 whole entry): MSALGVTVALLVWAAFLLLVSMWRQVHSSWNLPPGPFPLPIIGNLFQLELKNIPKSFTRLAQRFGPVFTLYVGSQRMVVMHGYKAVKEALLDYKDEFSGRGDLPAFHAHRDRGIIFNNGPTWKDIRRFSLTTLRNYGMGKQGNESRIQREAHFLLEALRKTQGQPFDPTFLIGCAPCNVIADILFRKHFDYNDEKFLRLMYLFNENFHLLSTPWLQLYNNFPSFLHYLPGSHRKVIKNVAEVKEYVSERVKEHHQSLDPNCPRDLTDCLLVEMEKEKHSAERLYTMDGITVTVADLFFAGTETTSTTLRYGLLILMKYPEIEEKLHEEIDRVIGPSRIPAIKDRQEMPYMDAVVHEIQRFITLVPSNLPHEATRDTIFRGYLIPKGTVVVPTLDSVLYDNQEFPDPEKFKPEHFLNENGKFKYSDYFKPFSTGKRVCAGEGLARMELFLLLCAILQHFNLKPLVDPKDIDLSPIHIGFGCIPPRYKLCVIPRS
Method: as §1

T1 sequence (P10632 whole entry): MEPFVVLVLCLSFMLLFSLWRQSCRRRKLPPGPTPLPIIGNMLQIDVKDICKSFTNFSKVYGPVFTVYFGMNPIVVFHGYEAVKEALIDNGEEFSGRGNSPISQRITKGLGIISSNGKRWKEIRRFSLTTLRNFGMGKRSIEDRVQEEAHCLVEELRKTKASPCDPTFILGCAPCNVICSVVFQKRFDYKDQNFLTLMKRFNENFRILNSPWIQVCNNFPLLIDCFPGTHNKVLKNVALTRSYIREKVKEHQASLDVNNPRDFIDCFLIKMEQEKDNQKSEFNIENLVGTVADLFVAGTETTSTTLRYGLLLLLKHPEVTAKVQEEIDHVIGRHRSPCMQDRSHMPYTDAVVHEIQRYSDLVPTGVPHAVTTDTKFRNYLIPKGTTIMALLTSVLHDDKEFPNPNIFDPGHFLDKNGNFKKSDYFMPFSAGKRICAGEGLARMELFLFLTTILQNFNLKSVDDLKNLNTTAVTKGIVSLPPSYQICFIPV

C=CC(=O)N[C@H]1CCC[C@H]1NC(=O)c1sc2nccc3c2c1NC(=O)N3c1cnc(CC(C)C)cc1C (atropisomer, axis not shown) [compound of Formula (III), N-((1R,2S)-2-Acrylamidocyclopentyl)-5-(S)-(6-isobutyl-4-methylpyridin-3-yl)-4-oxo-4,5-dihydro-3H-1-thia-3,5,8-triazaacenaphthylene-2-carboxamide]
IC50 (CYP2C8): 16 µM | IC50 (CYP2E1): > 50 µM
